Among the data in ChEMBL document CHEMBL4602625, “Synthesis, biological evaluation and SAR studies of ursolic acid 3β-ester derivatives as novel CETP inhibitors” (Bioorg Med Chem Lett, 2020) are inhibition and IC50 values, retold here.

Some results are limits rather than exact numbers.

The target in assay [1] is T1, Cholesteryl ester transfer protein (Homo sapiens) (UniProt P11597).
T1 sequence (whole entry): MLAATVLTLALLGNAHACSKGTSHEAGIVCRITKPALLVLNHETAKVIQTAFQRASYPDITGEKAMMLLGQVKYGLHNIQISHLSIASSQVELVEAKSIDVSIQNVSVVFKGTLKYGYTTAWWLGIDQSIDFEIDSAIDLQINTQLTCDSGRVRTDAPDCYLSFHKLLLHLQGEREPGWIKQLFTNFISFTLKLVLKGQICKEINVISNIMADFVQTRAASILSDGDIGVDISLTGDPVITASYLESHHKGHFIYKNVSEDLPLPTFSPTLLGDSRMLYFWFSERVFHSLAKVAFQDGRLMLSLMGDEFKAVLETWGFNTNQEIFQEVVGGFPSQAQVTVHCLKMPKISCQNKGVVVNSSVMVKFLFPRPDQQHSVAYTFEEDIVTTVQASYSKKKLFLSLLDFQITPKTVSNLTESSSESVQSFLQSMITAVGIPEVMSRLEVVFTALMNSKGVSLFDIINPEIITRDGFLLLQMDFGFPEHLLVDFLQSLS
Nature of the assay: Inhibition of human CETP at 10 uM relative to control.

Assay [2] deals with T2, Cholesteryl ester transfer protein (Homo sapiens, UniProt P11597).
T2 sequence (P11597 whole entry): T1 sequence (whole entry)
Nature of the assay: Inhibition of human CETP.

Regarding `CC(CC(=O)O)CC(=O)O[C@H]1CC[C@]2(C)[C@H]3CC=C4[C@@H]5[C@@H](C)[C@H](C)CC[C@]5(C(=O)O)CC[C@@]4(C)[C@]3(C)CC[C@H]2C1(C)C` (some centres not stated), in assay [1], the inhibition was found to be 1.1%. The same measure, in the same setting: as for `C[C@H]1[C@H](C)CC[C@]2(C(=O)O)CC[C@]3(C)C(=CC[C@@H]4[C@@]5(C)CC[C@H](OC(=O)C6C(C(=O)O)C6(C)C)C(C)(C)[C@@H]5CC[C@]43C)[C@H]12` (some centres not stated), the figure is 9%; as for `C[C@H]1[C@H](C)CC[C@]2(C(=O)O)CC[C@]3(C)C(=CC[C@@H]4[C@@]5(C)CC[C@H](OC(=O)CC(C)(C)CC(=O)O)C(C)(C)[C@@H]5CC[C@]43C)[C@H]12`, 0%.

`C[C@H]1[C@H](C)CC[C@]2(C(=O)O)CC[C@]3(C)C(=CC[C@@H]4[C@@]5(C)CC[C@H](OC(=O)CCC(=O)O)C(C)(C)[C@@H]5CC[C@]43C)[C@H]12`: in assay [1], the inhibition was 42.8%. For the same molecule, the IC50 in assay [2] was found to be 10.9 µM. For `C[C@H]1[C@H](C)CC[C@]2(C(=O)O)CC[C@]3(C)C(=CC[C@@H]4[C@@]5(C)CC[C@H](OC(=O)C6CC6C(=O)O)C(C)(C)[C@@H]5CC[C@]43C)[C@H]12` (some centres not stated), in that order: 53.2% and 2.4 µM. As for `C[C@H]1[C@H](C)CC[C@]2(C(=O)O)CC[C@]3(C)C(=CC[C@@H]4[C@@]5(C)CC[C@H](OC(=O)CC6(CC(=O)O)CCCC6)C(C)(C)[C@@H]5CC[C@]43C)[C@H]12`, the inhibition in assay [1] is 0%. Same read-out and setting: as for `C[C@H]1[C@H](C)CC[C@]2(C(=O)O)CC[C@]3(C)C(=CC[C@@H]4[C@@]5(C)CC[C@H](OC(=O)CCCCCC(=O)O)C(C)(C)[C@@H]5CC[C@]43C)[C@H]12`, the figure is 11.1%; as for `C[C@H]1[C@H](C)CC[C@]2(C(=O)O)CC[C@]3(C)C(=CC[C@@H]4[C@@]5(C)CC[C@H](OC(=O)CCCCC(=O)O)C(C)(C)[C@@H]5CC[C@]43C)[C@H]12`, 23.3%. With `C[C@H]1[C@H](C)CC[C@]2(C(=O)O)CC[C@]3(C)C(=CC[C@@H]4[C@@]5(C)CC[C@H](O)C(C)(C)[C@@H]5CC[C@]43C)[C@H]12` [URSOLIC ACID], the IC50 in assay [2] was over 50 µM. `C[C@H]1[C@H](C)CC[C@]2(C(=O)O)CC[C@]3(C)C(=CC[C@@H]4[C@@]5(C)CC[C@H](OC(=O)CCCC(=O)O)C(C)(C)[C@@H]5CC[C@]43C)[C@H]12` returned an inhibition in assay [1] of 55.1%. Besides, the IC50 in assay [2] is 3.2 µM.

The molecule `C[C@H]1[C@H](C)CC[C@]2(C(=O)O)CC[C@]3(C)C(=CC[C@@H]4[C@@]5(C)CC[C@H](OC(=O)CC6(CC(=O)O)CCCCC6)C(C)(C)[C@@H]5CC[C@]43C)[C@H]12` had an inhibition in assay [1] of 1.5%. Molecule `COc1cc(F)c(C(C)C)cc1-c1ccc(C(F)(F)F)cc1CN1C(=O)O[C@H](c2cc(C(F)(F)F)cc(C(F)(F)F)c2)[C@@H]1C` yielded an inhibition in assay [1] of 88.4%.

As for `C[C@H]1[C@H](C)CC[C@]2(C(=O)O)CC[C@]3(C)C(=CC[C@@H]4[C@@]5(C)CC[C@H](OC(=O)c6ccccc6C(=O)O)C(C)(C)[C@@H]5CC[C@]43C)[C@H]12`, in assay [1], the inhibition stood at 47.9%. This molecule also gave an IC50 in assay [2] of 5.5 µM. For the molecule `C[C@H]1[C@H](C)CC[C@]2(C(=O)O)CC[C@]3(C)C(=CC[C@@H]4[C@@]5(C)CC[C@H](OC(=O)c6cccnc6)C(C)(C)[C@@H]5CC[C@]43C)[C@H]12`, in assay [1], the inhibition amounted to 11.2%. On the same count and under the same terms, next, `C[C@H]1[C@H](C)CC[C@]2(C(=O)O)CC[C@]3(C)C(=CC[C@@H]4[C@@]5(C)CC[C@H](OC(=O)c6ccccc6)C(C)(C)[C@@H]5CC[C@]43C)[C@H]12`: 22.7%. Same read-out and setting: next, `C[C@H]1[C@H](C)CC[C@]2(C(=O)O)CC[C@]3(C)C(=CC[C@@H]4[C@@]5(C)CC[C@H](OC(=O)c6ccc(C(=O)O)cc6)C(C)(C)[C@@H]5CC[C@]43C)[C@H]12`: 24.5%.

As to `C[C@H]1[C@H](C)CC[C@]2(C(=O)O)CC[C@]3(C)C(=CC[C@@H]4[C@@]5(C)CC[C@H](OC(=O)c6cccc(C(=O)O)c6)C(C)(C)[C@@H]5CC[C@]43C)[C@H]12`, the inhibition in assay [1] was found to be 61.8%. For the same molecule, inhibition in assay [2] was half-maximal at 3.3 µM (IC50).

The inhibition is the drop in the measured response relative to a control, in per cent. In general, IC50 refers to the concentration at which inhibition is half-maximal. A high value points to weaker potency in that assay.
